ED35, TD50 and LD50 data for one compound are collected here from patent US3969523A, “Antiphlogistic pharmaceutical compositions containing a 1-(nicotinoyl or isonicotinoyl)-3-biphenylyl-alkanone-(2)” (Boehringer Ingelheim GmbH, priority 1973, dated 1976).

Data set [1] relates to kaolin-induced edema of the hind paw of the rat. Description: Antiphlogistic activity: antiexsudative effect on kaolin-induced edema of the hind paw of the rat, oral. The data set is classed as in vivo. Particulars: p.o., dose leading to 35% reduction of swelling, graphically determined. On the procedure: (§1) The antiphlogistic activity was tested to determine the antiexsudative effect on the kaolin-induced edema (see Hillebrecht in Arzneimittelforschung 4, 607 - 614 (1954) and the carrageenin-induced edema (see Winter in Proc. Soc. Exper. Biol. Med. 111, 544 (1962)) of the hind paw of the rat after oral administration of at least 3 doses to at least 10 animals per dose. The dose leading to a 35% reduction of the swelling (ED35) was graphically determined.

Data set [2] has as its system carrageenin-induced edema of the hind paw of the rat. Briefly: Antiphlogistic activity: antiexsudative effect on carrageenin-induced edema of the hind paw of the rat, oral. The data set is classed as in vivo. Conditions: p.o., dose leading to 35% reduction of swelling, graphically determined. On the procedure:
as §1

Another data set in a line: in vivo. Particulars: rat, po. On the procedure: The ulcerogenic activity in the rat was determined after oral administration of the compound for 3 times after 24 hours each time. The animals were killed 4 hours after that, and the number of the animals having an ulcer was recorded.
A short description of data set [3]: Peroral acute toxicity in rats. Conditions: in vivo, po; rat; 50% died within 14 days; Litchfield and Wilcoxon. The method, then:
The peroral acute toxicity of the compounds was determined on groups of 10 rats each.

As for `CC(C(=O)COC(=O)c1ccncc1)c1ccc(-c2ccccc2F)cc1` (stereo not shown) [A, 1-isonicotinoyloxy-3-(2'-fluoro-4"-biphenylyl)-butanone-(2)], the ED35 was 14 mg/kg in data set [1] and 22.5 mg/kg in data set [2]. Besides, in the data set “in vivo”, the TD50 is 71 mg/kg. In data set [3], this compound returned an LD50 at 336 h of 1170 mg/kg.

As usually defined, the LD50 is the dose expected to kill half of the subjects tested. Low values mean greater toxicity, high ones lower toxicity.
